Data published in ChEMBL document CHEMBL1144437, “Identification of nonpeptidic small-molecule inhibitors of interleukin-2” (Bioorg Med Chem Lett, 2005).

Test: Inhibitory concentration against interleukin-2 binding
Parameters: species or system Homo sapiens
In the case of N=C(N)N[C@@H](C(=O)NCC(=O)N1CCC(c2cc(-c3cccc(Cl)c3Cl)n[nH]2)CC1)C1CCCCC1, the IC50 is reported as 6 µM. In the case of CCCN(CCCNC(=O)N1CCC(c2cc(-c3cccc(Cl)c3Cl)nn2C)CC1)C(=N)N, the IC50 is reported as > 100 µM. For Cn1nc(-c2cccc(Cl)c2Cl)cc1C1CCN(C(=O)NCCCCN=C(N)N)CC1, the IC50 was > 100 µM. With CCCN(CCCNS(=O)(=O)N1CCC(c2cc(-c3cccc(Cl)c3Cl)nn2C)CC1)C(=N)N the IC50 was 32 µM. Work on C[C@H](CCNS(=O)(=O)N1CCC(c2cc(-c3cccc(Cl)c3Cl)nn2C)CC1)N=C(N)N yielded an IC50 of 90 µM. For CN(CCCNS(=O)(=O)N1CCC(c2cc(-c3cccc(Cl)c3Cl)nn2C)CC1)C(=N)N, the IC50 was 14 µM. In the case of Cn1nc(-c2cccc(Cl)c2Cl)cc1C1CCN(C(=O)NCCN=C(N)N)CC1, the IC50 is reported as > 100 µM. For CC(C)C[C@H](CCNC(=O)N1CCC(c2cc(-c3cccc(Cl)c3Cl)nn2C)CC1)N=C(N)N, the IC50 was 23 µM. In the case of Cn1nc(-c2cccc(Cl)c2Cl)cc1C1CCN(S(=O)(=O)NCCCN=C(N)N)CC1, the IC50 is reported as 23 µM. Work on Cn1nc(-c2cccc(Cl)c2Cl)cc1C1CCN(C(=O)NCCCN=C(N)N)CC1 yielded an IC50 of 29 µM. In the case of Cn1nc(-c2cccc(Cl)c2Cl)cc1C1CCN(S(=O)(=O)NCCCCN=C(N)N)CC1, the IC50 is reported as > 100 µM. With Cn1nc(-c2cccc(Cl)c2Cl)cc1C1CCN(C(=O)NCC[C@H](N=C(N)N)C(=O)O)CC1 the IC50 was > 100 µM. In the case of CC(C)N(CCCNC(=O)N1CCC(c2cc(-c3cccc(Cl)c3Cl)nn2C)CC1)C(=N)N, the IC50 is reported as > 100 µM. For CN(C)C(=O)[C@H](CCNC(=O)N1CCC(c2cc(-c3cccc(Cl)c3Cl)nn2C)CC1)N=C(N)N, the IC50 was 7 µM. With CC(C)[C@@H](CCNS(=O)(=O)N1CCC(c2cc(-c3cccc(Cl)c3Cl)nn2C)CC1)N=C(N)N the IC50 was > 100 µM. Work on C[C@H](CCNC(=O)N1CCC(c2cc(-c3cccc(Cl)c3Cl)nn2C)CC1)N=C(N)N yielded an IC50 of 57 µM. With CN(CCCNC(=O)N1CCC(c2cc(-c3cccc(Cl)c3Cl)nn2C)CC1)C(=N)N the IC50 was 16 µM. Work on CC(=O)N1CCN(C(=O)[C@H](CCNC(=O)N2CCC(c3cc(-c4cccc(Cl)c4Cl)nn3C)CC2)N=C(N)N)CC1 yielded an IC50 of 60 µM. Cn1nc(-c2cccc(Cl)c2Cl)cc1C1CCN(C(=O)NCC[C@H](N=C(N)N)C(=O)N2CCCC2)CC1 gave an IC50 of 20 µM. Molecule CC(C)[C@H](CCNS(=O)(=O)N1CCC(c2cc(-c3cccc(Cl)c3Cl)nn2C)CC1)N=C(N)N has an IC50 of 76 µM. In the case of CC(C)N(CCCNS(=O)(=O)N1CCC(c2cc(-c3cccc(Cl)c3Cl)nn2C)CC1)C(=N)N, the IC50 is reported as 48 µM. For CN(CCCNS(=O)(=O)N1CCC(c2cc(-c3ccc(OCc4ccc(C(=O)O)o4)c(Cl)c3Cl)nn2C)CC1)C(=N)N, the IC50 was 0.6 µM. In the case of Cn1nc(-c2cccc(Cl)c2Cl)cc1C1CCN(C(=O)NCC[C@H](N=C(N)N)C(=O)N2CCC3CCCCC3C2)CC1 (stereo partly drawn), the IC50 is reported as > 100 µM. For CC(C)[C@@H](CCNC(=O)N1CCC(c2cc(-c3cccc(Cl)c3Cl)nn2C)CC1)N=C(N)N, the IC50 was > 100 µM. For Cn1nc(-c2cccc(Cl)c2Cl)cc1C1CCN(S(=O)(=O)NCCN=C(N)N)CC1, the IC50 was > 100 µM. For CC(C)C[C@H](CCNS(=O)(=O)N1CCC(c2cc(-c3cccc(Cl)c3Cl)nn2C)CC1)N=C(N)N, the IC50 was 30 µM. With CNC(=O)[C@H](CCNC(=O)N1CCC(c2cc(-c3cccc(Cl)c3Cl)nn2C)CC1)N=C(N)N the IC50 was > 100 µM. For COC(=O)[C@H](CCNC(=O)N1CCC(c2cc(-c3cccc(Cl)c3Cl)nn2C)CC1)N=C(N)N, the IC50 was > 100 µM. Work on CCN(CC)C(=O)[C@H](CCNC(=O)N1CCC(c2cc(-c3cccc(Cl)c3Cl)nn2C)CC1)N=C(N)N yielded an IC50 of 11 µM. With CCN(CC1CC1)C(=O)[C@H](CCNC(=O)N1CCC(c2cc(-c3cccc(Cl)c3Cl)nn2C)CC1)N=C(N)N the IC50 was 60 µM. Work on COC(=O)[C@H](Cc1ccc(C#Cc2ccccc2)cc1)NC(=O)C[C@H]1CCCN(C(=N)N)C1 yielded an IC50 of 3 µM. CC(C)[C@H](CCNC(=O)N1CCC(c2cc(-c3cccc(Cl)c3Cl)nn2C)CC1)N=C(N)N showed an IC50 of 55 µM. CC(C)C[C@@H](NC(=N)N)C(=O)NCC(=O)N1CCC(c2cc(-c3ccc(OCc4ccc(C(=O)O)o4)c(Cl)c3Cl)nn2C)CC1 gave an IC50 of 0.06 µM.
